Values of other authors, collected in patent EP3051247B1, “CHEMICAL CLEANING PROCEDURE FOR HEAT EXCHANGERS” (GD Energy Services S.a.r.l., priority 2013, dated 2015).

Conditions: for pKa1: first acid dissociation step (AH3 → AH2^- + H^+; BH2 → BH^- + H^+); for pKa2: second acid dissociation step (AH2^- → AH^2- + H^+; BH^- → B^2- + H^+)

Compound | pKa1 | pKa2 | pKa3 (third acid dissociation step (AH^2- → A^3- + H^+))
O=C1O[C@H]([C@@H](O)CO)C(O)=C1O [Ascorbic acid] | pKa1 = 4.1 | pKa2 = 11.4 | –
O=C(O)CC(O)(CC(=O)O)C(=O)O [Citric acid] | pKa1 = 3.15 | pKa2 = 4.77 | pKa3 = 6.40
